Data taken from ChEMBL document CHEMBL5727697, “TYK2 inhibitors and uses thereof” (2020).

What follows are compounds tested against Non-receptor tyrosine-protein kinase TYK2 (Homo sapiens, UniProt P29597) (assay: Binding Assay: Binding constants for compounds of the present invention against the JH2 domain were determined by the following protocol for a KINOMEscan® assay (DiscoveRx). A fusion protein of a partial length construct of human TYK2 (JH2domain-pseudokinase) (amino acids G556 to D888 based on reference sequence NP_003322.3) and the DNA binding domain of NFkB was expressed in transiently transfected HEK293 cells. From these HEK 293 cells, extracts were prepared in M-PER extraction buffer (Pierce) in the presence of Protease Inhibitor Cocktail Complete (Roche) and Phosphatase Inhibitor Cocktail Set II (Merck) per manufacturers' instructions. The TYK2 (JH2domain-pseudokinase) fusion protein was labeled with a chimeric double-stranded DNA tag containing the NFkB binding site (5′-GGGAATTCCC-3′) fused to an amplicon for qPCR readout, which was added directly to the expression extract (the final concentration of DNA-tag in the binding reaction is 0.1 nM).).
Assay type: cell-based

Non-receptor tyrosine-protein kinase TYK2, sequence (P29597 whole entry, the tested form may be a part): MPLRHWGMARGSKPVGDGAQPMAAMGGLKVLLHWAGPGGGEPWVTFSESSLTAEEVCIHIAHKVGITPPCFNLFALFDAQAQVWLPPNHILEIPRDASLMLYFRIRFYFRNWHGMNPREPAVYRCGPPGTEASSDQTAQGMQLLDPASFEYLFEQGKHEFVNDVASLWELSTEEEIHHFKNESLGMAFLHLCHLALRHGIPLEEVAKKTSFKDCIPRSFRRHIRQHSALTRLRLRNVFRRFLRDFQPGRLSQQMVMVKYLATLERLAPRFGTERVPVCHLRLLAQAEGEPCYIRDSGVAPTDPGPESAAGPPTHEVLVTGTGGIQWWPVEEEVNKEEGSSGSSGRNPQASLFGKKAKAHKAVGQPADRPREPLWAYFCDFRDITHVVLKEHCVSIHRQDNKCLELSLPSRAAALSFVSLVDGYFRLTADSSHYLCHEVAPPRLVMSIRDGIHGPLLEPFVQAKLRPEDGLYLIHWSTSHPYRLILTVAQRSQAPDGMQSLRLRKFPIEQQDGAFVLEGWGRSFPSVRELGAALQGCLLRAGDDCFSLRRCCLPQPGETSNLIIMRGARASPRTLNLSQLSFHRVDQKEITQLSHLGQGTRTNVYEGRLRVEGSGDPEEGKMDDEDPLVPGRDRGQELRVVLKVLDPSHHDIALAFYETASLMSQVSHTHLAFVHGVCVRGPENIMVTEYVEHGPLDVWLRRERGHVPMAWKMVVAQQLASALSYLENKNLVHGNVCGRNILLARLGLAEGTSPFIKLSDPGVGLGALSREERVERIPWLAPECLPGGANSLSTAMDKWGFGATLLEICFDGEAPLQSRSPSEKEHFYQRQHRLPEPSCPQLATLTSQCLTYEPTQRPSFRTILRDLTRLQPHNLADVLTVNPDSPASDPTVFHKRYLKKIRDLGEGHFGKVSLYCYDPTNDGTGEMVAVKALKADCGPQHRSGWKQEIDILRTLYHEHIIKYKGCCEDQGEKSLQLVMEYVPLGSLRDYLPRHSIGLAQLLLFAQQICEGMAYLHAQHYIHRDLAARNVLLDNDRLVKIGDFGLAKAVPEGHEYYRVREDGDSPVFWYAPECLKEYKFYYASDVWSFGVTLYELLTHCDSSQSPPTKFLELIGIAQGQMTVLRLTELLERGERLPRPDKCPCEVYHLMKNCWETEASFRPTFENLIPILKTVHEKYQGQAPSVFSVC

How did the Kd turn out when `Cc1nc2c(Nc3ccc(-c4cnn(C)c4C)cc3S(C)(=O)=O)cc(Nc3cccc(C#N)n3)nc2[nH]1` was run?
The Kd was < 0.1 nM.

How did the Kd turn out when `COCCNc1ccc(Nc2cc(Nc3ccccc3N(C)S(C)(=O)=O)c3nc(C)[nH]c3n2)nc1C#N` was run?
Its Kd is < 0.1 nM.

With `COc1c(Nc2cc(Nc3ccc(C(C)(C)OC)c(C#N)n3)nc3[nH]c(C)nc23)cccc1-c1nnn(C)n1` as the compound, how does the Kd read?
The Kd was > 10 nM.

With `COc1ccccc1Nc1cc(Nc2ccc(N3CCC4(CCOCC4)CC3)cn2)nc2[nH]c(C)nc12` as the compound, how does the Kd read?
The Kd was > 10 nM.

`Cn1cncc1-c1ccc(Nc2cc(NC(=O)[C@@H]3C[C@@H]3F)nc3[nH]c(C(F)F)nc23)c(S(C)(=O)=O)c1` was tested. Which Kd did it give?
The Kd was < 0.1 nM.

`CN(c1cc(-c2cncn2C)ccc1Nc1cc(NC(=O)[C@@H]2C[C@@H]2F)nc2[nH]c(C(F)F)nc12)S(C)(=O)=O` was tested. Which Kd did it give?
Its Kd is < 0.1 nM.

How did the Kd turn out when `Cc1c(-c2ccc(Nc3cc(NC(=O)C4CC4)nc4[nH]c(C(F)F)nc34)c(S(C)(=O)=O)c2)cnn1C` was run?
Its Kd is < 0.1 nM.
